Reference: patent US7253191B2, “2-thio-substituted imidazole derivatives and the use thereof in the pharmaceutical industry” (Merckle GmbH, priority 2001, dated 2007)

What was measured:
IL-1β = experiment: In vitro test of cytokine release: LPS-stimulated human whole blood / PBMCs, IL-1β by ELISA; type: cell-based; conditions: Table 1; for IC50: LPS (E.coli 026:B6) stimulation 4 hours, table does not say whole blood or PBMCs
Procedure: (§1) They may be administered in one individual dose or in a plurality of doses. The activity spectrum of the compounds as inhibitors of cytokine release was examined using the test systems below, as described by C. Donat and S. Laufer in Arch. Pharm. Pharm. […] 1, 1-40, 2000.
(§2) The reaction is stopped by placing the samples on ice, adding DPBS buffer and then centrifuging at 1000*g for 15 min. The amount of IL-1β and TNFα in the plasma supernatant is then determined by ELISA.
(§3) The cells are washed twice with DPBS buffer, resuspended in macrophage SFM medium and adjusted to a cell count of 1*10^6 cells/ml.
(§4) The reaction is stopped by placing the samples on ice, adding DPBS buffer and then centrifuging at 15 880*g for 12 min. The amount of IL-1β and TNFα in the plasma supernatant is then determined by ELISA.

TNF-α = experiment: In vitro test of cytokine release: LPS-stimulated human whole blood / PBMCs, TNFα by ELISA; type: cell-based; conditions: Table 1; for IC50: LPS (E.coli 026:B6) stimulation 4 hours, table does not say whole blood or PBMCs; for TNF-α, value given in %: concentration not given
Procedure: as §1, §2, §3, §4

Row | IC50 (IL-1β) [µM] | IC50 (TNF-α) [µM] | Molecule | further results
1 | 1.8 | 15 | 1-Dimethylaminophenyl-4-(4-fluorophenyl)-5-(4-pyridyl)-2-thioimidazole [Example 9] | 
2 | 1.3 | 41 | CCn1c(-c2ccncc2)c(-c2ccc(F)cc2)[nH]c1=S [Example 2, 1-Ethyl-4-(4-fluorophenyl)-5-(4-pyridyl)-2-thioimidazole] | 
3 | 2.4 | 32 | CCCn1c(-c2ccncc2)c(-c2ccc(F)cc2)[nH]c1=S [Example 3, 4-(4-Fluorophenyl)-1-n-propyl-5-(4-pyridyl)-2-thioimidazole] | 
4 | 2.2 |  | CC(C)n1c(-c2ccncc2)c(-c2ccc(F)cc2)[nH]c1=S [Example 4] | TNF-α, value given in % (TNF-α): 46%
5 | 5.4 | 33 | Fc1ccc(-c2[nH]c(=S)n(C3CCCCC3)c2-c2ccncc2)cc1 [Example 5, 1-Cyclohexyl-4-(4-fluorophenyl)-5-(4-pyridyl)-2-thioimidazole] | 
6 | 2.3 | 37 | Fc1ccc(-c2[nH]c(=S)n(-c3ccccc3)c2-c2ccncc2)cc1 [Example 7, 4-(4-Fluorophenyl)-1-phenyl-5-(4-pyridyl)-2-thioimidazole] | 
7 | 1 | 20 | Fc1ccc(-c2[nH]c(=S)n(Cc3ccccc3)c2-c2ccncc2)cc1 [Example 8, 1-Benzyl-4-(4-fluorophenyl)-5-(4-pyridyl)-2-thioimidazole] | 
8 | 8 |  | Fc1ccc(-c2[nH]c(=S)n(-c3cccnc3)c2-c2ccncc2)cc1 [Example 10, 4-(4-Fluorophenyl)-1-(3-pyridyl)-5-(4-pyridyl)-2-thioimidazole] | TNF-α, value given in % (TNF-α): 42%
9 | 12 |  | CN(C)CCn1c(-c2ccncc2)c(-c2ccc(F)cc2)[nH]c1=S [Example 11, 1-Dimethylaminoethyl-4-(4-fluorophenyl)-5-(4-pyridyl)-2-thioimidazole] | TNF-α, value given in % (TNF-α): 19%
10 | 1.6 | 45 | CC1(C)CC(n2c(-c3ccncc3)c(-c3ccc(F)cc3)[nH]c2=S)CC(C)(C)N1 [Example 12, 4-(4-Fluorophenyl)-5-(4-pyridyl)-1-(2,2,6,6-tetramethylpiperidin-4-yl)-2-thioimidazole] | 
11 | 18 | 100 | Fc1ccc(-c2[nH]c(=S)n(CCCN3CCOCC3)c2-c2ccncc2)cc1 [Example 14, 4-(4-Fluorophenyl)-1-(3-N-morpholinopropyl)-5-(4-pyridyl)-2-thioimidazole] | 
12 |  |  | Fc1ccc(-c2[nH]c(=S)n(CCN3CCOCC3)c2-c2ccncc2)cc1 [Example 16, 4-(4-Fluorophenyl)-1-N-morpholinoethyl-5-(4-pyridyl)-2-thioimidazole] | IL-1β, value given in % (IL-1β; concentration not given): 44%; TNF-α, value given in % (TNF-α): 34%
13 | 7.3 |  | OCCCn1c(-c2ccncc2)c(-c2ccc(F)cc2)[nH]c1=S [Example 17, 4-(4-Fluorophenyl)-1-(3-hydroxypronyl)-5-(4-pyridyl)-2-thioimidazole] | TNF-α, value given in % (TNF-α): 49%
14 | 5.8 | 38 | Fc1ccc(-c2[nH]c(=S)n(C3CCN(Cc4ccccc4)CC3)c2-c2ccncc2)cc1 [Example 18] | 
15 | 0.45 | 2.5 | CSc1nc(-c2ccc(F)cc2)c(-c2ccncc2)n1C [Example 20] | 
16 |  |  | CCCn1c(SC)nc(-c2ccc(F)cc2)c1-c1ccncc1 [Example 21, 4-(4-Fluorophenyl)-2-methylthio-1-n-propyl-5-(4-pyridyl)imidazole] | IC50 (IL-1β; Homo sapiens): 0.36 µM; IC50 (TNF-α; Homo sapiens): 1.3 µM
17 |  |  | CSc1nc(-c2ccc(F)cc2)c(-c2ccncc2)n1C1CC1 [Example 22, 1-Cyclopropyl-4-(4-fluorophenyl)-2-methylthio-5-(4-pyridyl)imidazole] | IC50 (IL-1β; Homo sapiens): 0.34 µM; IC50 (TNF-α; Homo sapiens): 1.1 µM
18 |  |  | CSc1nc(-c2ccc(F)cc2)c(-c2ccncc2)n1CCCN1CCOCC1 [Example 24, 4-(4-Fluorophenyl)-2-methylthio-1-N-morpholinopropyl-5-(4-pyridyl)-imidazole] | IC50 (IL-1β; Homo sapiens): 1 µM; IC50 (TNF-α; Homo sapiens): 2.7 µM
19 |  |  | CSc1nc(-c2ccc(F)cc2)c(-c2ccncc2)n1C1CC(C)(C)NC(C)(C)C1 [Example 25, 4-(4-Fluorophenyl)-2-methylthio-5-(4-pyridyl)-1-(2,2,6,6-tetramethyl-piperidin-4-yl)imidazole] | IC50 (IL-1β; Homo sapiens): 0.85 µM; IC50 (TNF-α; Homo sapiens): 16 µM
20 |  |  | CCCn1c(SCc2ccccc2)nc(-c2ccc(F)cc2)c1-c1ccncc1 [Example 28, 2-Benzylthio-4-(4-fluorophenyl)-1-n-propyl-5-(4-pyridyl)imidazole] | IC50 (IL-1β; Homo sapiens): 0.65 µM; IC50 (TNF-α; Homo sapiens): 29 µM
21 |  |  | CCCn1c(SCc2ccc(Cl)cc2)nc(-c2ccc(F)cc2)c1-c1ccncc1 [Example 29, 2-(4-Chlorobenzyl)thio-4-(4-fluorophenyl)-1-n-propyl-5-(4-pyridyl)-imidazole] | IC50 (IL-1β; Homo sapiens): 1.3 µM; IC50 (TNF-α; Homo sapiens): 62 µM
22 |  |  | CCCn1c(SCc2ccc(C)cc2)nc(-c2ccc(F)cc2)c1-c1ccncc1 [Example 30, 4-(4-Fluorophenyl)-2-(4-methylbenzyl)thio-1-n-propyl-5-(4-pyridyl)-imidazole] | IC50 (IL-1β; Homo sapiens): 1.3 µM; IC50 (TNF-α; Homo sapiens): 22 µM
23 |  |  | CC(C)n1c(SCc2ccc(Cl)cc2)nc(-c2ccc(F)cc2)c1-c1ccncc1 [Example 34, 2-(4-Chlorobenzyl)thio-4-(4-fluorophenyl)-1-isopropyl-5-(4-pyridyl)-imidazole] | IC50 (IL-1β; Homo sapiens): 5.3 µM; IC50 (TNF-α; Homo sapiens): 53 µM

Row | Molecule | IC50 (IL-1β) [µM] | IC50 (TNF-α) [µM] | further results
24 | 4-(4-Fluorophenyl)-2-(4-methylsulfonyl)benzylthio-1-N-morpholinoethyl-5-(4-pyridyl)imidazole [Example 44] | 1.4 | 12 | 
25 | Cn1c(S)nc(-c2ccc(F)cc2)c1-c1ccncc1 [Example 1, 4-(4-fluorophenyl)-1-methyl-5-(4-pyridyl)-2-thioimidazole] | 3.6 | 19 | 
26 | CCn1c(SCc2ccc(S(C)(=O)=O)cc2)nc(-c2ccc(F)cc2)c1-c1ccncc1 [Example 27, 1-Ethyl-4-(4-fluorophenyl)-2-(4-methylsulfonyl)benzylthio-5-(4-pyridyl)-imidazole] | 0.95 | 4.1 | 
27 | CCCn1c(SCc2ccc(SC)cc2)nc(-c2ccc(F)cc2)c1-c1ccncc1 [Example 31, 4-(4-Fluorophenyl)-2-(4-methylthio)benzylthio-1-n-propyl-5-(4-pyridyl)-imidazole] | 4.7 |  | TNF-α, value given in % (TNF-α): 35%
28 | CCCn1c(SCc2ccc([S+](C)[O-])cc2)nc(-c2ccc(F)cc2)c1-c1ccncc1 (centres unmarked) [Example 32, 4-(4-Fluorophenyl)-2-(4-methylsulfinyl)benzylthio-1-n-propyl-5-(4-pyridyl)imidazole] | 1.6 | 24 | 
29 | CCCn1c(SCc2ccc(S(C)(=O)=O)cc2)nc(-c2ccc(F)cc2)c1-c1ccncc1 [Example 33, 4-(4-Fluorophenyl)-2-(4-methylsulfonyl)benzylthio-1-n-propyl-5-(4-pyridyl)imidazole] | 0.72 | 6.8 | 
30 | CC(C)n1c(SCc2ccc(S(C)(=O)=O)cc2)nc(-c2ccc(F)cc2)c1-c1ccncc1 [Example 35, 4-(4-Fluorophenyl)-2-(4-methylsulfonyl)benzylthio-1-isopropyl-5-(4-pyridyl)imidazole] | 1.5 | 2.7 | 
31 | CS(=O)(=O)c1ccc(CSc2nc(-c3ccc(F)cc3)c(-c3ccncc3)n2C2CCCCC2)cc1 [Example 39, 1-Cyclohexyl-4-(4-fluorophenyl)-2-(4-methylsulfonyl)benzylthio-5-(4-pyridyl)imidazole] | 1.8 | 13 | 
